Test results published in patent US20180207165A1, “METHODS AND COMPOSITIONS FOR STIMULATING BENEFICIAL BACTERIA IN THE GASTROINTESTINAL TRACT” (Rijksuniversiteit Groningen, priority 2012, published 2018).

Key:
F. prausnitzii = assay: Stability of F. prausnitzii synbiotic formulations after exposure to ambient air (CFU count); parameters: species or system Faecalibacterium prausnitzii; conditions: ingredient in lyophilized formulation
Experimental: To produce a formulation with living faecalibacteria that are stable for at least 24 h under aerobic conditions, series of experiments were performed with different combinations of ingredients. Faecalibacteria were grown overnight in broth culture medium, centrifuged and the pellet was washed with anaerobic phosphate buffered saline (PBS) and centrifuged again. The mixtures were frozen at −20° C. and subsequently lyophilized.
After lyophilizing, the formulations were exposed to air for the indicated time periods. The preparations were re-suspended in phosphate buffer and a 10 fold-dilution series was plated on anaerobic growth medium agar. The Colony-forming units were counted and compared with a non exposed t=0 time point.
The lyophilized granules obtained according to step 2 were stored in air tight containers under ambient aerobic conditions. For stability and viability studies granules were exposed to the ambient air at defined period up to 24 h. After aerobic exposures the granules were processed anaerobically under anaerobic tent. The granules were diluted and rehydrated in oxygen free phosphate buffered saline (pH 7.2) supplemented with 0.05% cysteine and ten-fold dilution series were plated on YCFAG agar medium. Colony forming units were determined by counting the colonies formed on the agar plates after 24 h of incubations at 37° C.

[1] = tested on: Faecalibacterium prausnitzii; assay: Riboflavin intervention trial: FISH count of F. prausnitzii in fecal samples; assay type: in vivo, human
Experimental: (§1) A human intervention study was performed to investigate the effect of riboflavin on the numbers of Faecalibacterium prausnitzii in the gut. A group of 8 volunteers (body weight 60 to 90 kg) were asked to take 1 oral dose of 100 mg riboflavin supplement per day for 14 days.
(§2) Two samples were taken in a period of two weeks before the intake, as baseline samples, two samples (one per week) were taken during the intake and one sample a week after intake. The number of F. prausnitzii and that of other bacterial groups were determined by FISH with a specific probes as describe before (Harmsen et al. Appl Environ Microbiol. 2002 June; 68(6):2982-90). The numbers of faecalibacteria of the samples taken before and during the intake were averaged and all samples were plotted in FIG. 1.

Clostridium group XIVa = assay: Riboflavin intervention trial: FISH count of Clostridium group XIVa in fecal samples; assay type: in vivo, human; conditions: 8 volunteers, 100 mg/day oral riboflavin for two weeks
Experimental: as §1, §2

[2] = tested on: Enterobacteriaceae, E. coli-like bacteria; assay: Riboflavin intervention trial: count of E. coli-like bacteria in fecal samples; assay type: in vivo, human
Experimental: as §1, §2

Enterococci = assay: Riboflavin intervention trial: count of Enterococci in fecal samples; assay type: in vivo, human; conditions: during the intervention, 100 mg/day riboflavin
Experimental: as §1, §2

[3] = Butyrate production in human volunteers on oral riboflavin; assay type: in vivo; conditions: orally administered riboflavin

## O=C1O[C@H]([C@@H](O)CO)C(O)=C1O [ascorbic acid]
F. prausnitzii
  protective effect on faecalibacteria against ambient air exposure: not observed

## N[C@@H](CS)C(=O)O [cysteine]
F. prausnitzii
  protective effect on faecalibacteria against ambient air exposure: provide the protective effect

## O=c1c(O)c(-c2ccc(O)c(O)c2)oc2cc(O)cc(O)c12 [quercitin]
F. prausnitzii
  protective effect on faecalibacteria against ambient air exposure: not observed

## Cc1cc2nc3c(=O)[nH]c(=O)nc-3n(C[C@H](O)[C@H](O)[C@H](O)CO)c2cc1C [riboflavin]
[1]; 8 volunteers, 100 mg/day oral riboflavin for 14 days, feces
  percentage F. prausnitzii of the total bacteria: increased in 7 out of 8 samples
[1]; 8 volunteers, 1 oral dose of 100 mg riboflavin per day for 14 days, pre, during, post intake, FISH
  number of faecalibacteria in fecal samples: increased during intake and decreased again when the intake ceases
[1]; calculated from before and from during intake, 100 mg/day riboflavin
  ratio faecalibacteria/Clostridium group XIVa: increased in all cases
Clostridium group XIVa
  number of Clostridium group XIVa bacteria in fecal samples: did not increase
[2]; during riboflavin intake, 100 mg/day for two weeks, all individuals tested
  number of E. coli(-like bacteria) in fecal samples: decreased or remained the same
[2]; upon administration of riboflavin, 100 mg/day
  ratio of faecalibacteria to E. coli-like bacteria: the ratio shifted towards faecalibacteria
Enterococci
  number of Enterococci in fecal samples: did not increase during the intervention
[3]
  butyrate production: enhanced
F. prausnitzii
  protective effect on faecalibacteria against ambient air exposure: provide the protective effect
